Experimental data: patent publication US20010010827A1, “Method and composition for treatment of headache using magnesium” (priority 1991, published 2001)
Read-outs that look alike come from different tables or passages of the source.

Assays:
[1] = test system: headache (migraine, cluster, chronic migrainous, chronic tension-type)
From the text: Forty consecutive patients who presented to the headache clinic with a moderate or severe headache of any type (4 or higher on a verbal 1 to 10 scale) were enrolled in this study after an informed consent. […] Patients with renal, cardiac, diabetic or other medical problems were excluded. The international Headache Society classification was used to diagnose all patients.^23 Age-matched healthy volunteers served as control subjects.
Immediately prior to the magnesium infusion a blood sample of serum IMg^2+, total magnesium (TMg) and ionized calcium (ICa^2+) was drawn under anaerobic conditions. The laboratory personnel (B.T.A., B.M.A.) were blinded as the blood samples were not accompanied by any clinical information, while the clinician administering the infusion (A.M.) received test results several days after the completion of the evaluation. Serum levels of IMg^2+ and ICa^2+ were measured using ion-selective electrodes with a NOVA Biomedical Stat Profile 8 Analyzer.^16-18 The lower limit of normal for IMg^2+ levels in this study was 0.55/mmol/L. The normal range for the ICa^2+/IMg^2+ ratio is 1.92-2.08.
Headache intensity was measured on a verbal 1 to 10 scale prior to and 15 minutes after the infusion. A greater than 50% reduction of pain intensity was considered a positive response. The recurrence or worsening of a headache within the following 24 was determined in a telephone interview on the following day. The clinical response to the IMg^2+ levels was correlated. The correlation was considered to be positive if patients with a normal IMg^2+ level (≧0.55 mmol/L) had no relief or less than 24 hrs of relief. In patients with low IMg^2+ levels (<0.55 mmol/L), a correlation was considered positive only if relief lasted for more than 24 hrs.
Mean values±S.E.M. were calculated and compared for statistical significance by a Student's t-test, ANOVA with Scheffe's contrast test, analysis of co-variance for age, and linear regression analysis, where appropriate. Chi-Square tests were also utilized where appropriate. A p-value of less than 0.05 was considered significant.

[2] = test system: chronic migrainous headache; experiment: Therapies tried in patient #27 for two months before the MgSO4 infusion; format: in vivo, human; details: acetaminophen 1000 mg or ibuprofen 400 mg four times/day, nabumetone 1000 mg/day for two weeks, cyproheptadine 4 mg nightly for two weeks
Method: Long-term results in patients with intermittent migraine attacks is difficult to gauge because of the variable frequency of migraines in these patients. Responses in patients with chronic headaches also varied. […] Various therapists (i.e., acetaminophen—1000 mg or ibuprofen—400 mg-four times/day; nabumetone— 1000 mg/day for two weeks; cyproheptadine—4 mg nightly for two weeks; physical exercise) were tried in this patient for two months prior to the infusion with no relief.

[3] = Oral glucose loading: ionized, total and intracellular free magnesium; format: in vivo, human; details: oral glucose 100 gm
Method: Ionized magnesium, serum total magnesium, and plasma renin activity (PRA) in fasting normotensive (NT) (n=20), essential hypertensive (n=28) subjects was monitored before, and 60, 90, 120 and 180 minutes after oral glucose loading (100 gm). Results were compared to intracellular free magnesium values obtained at the same time intervals as measured using ^31P-NMR spectroscopy.

[4] = of the 40 patients given IV MgSO4

O=S(=O)([O-])[O-].[Mg+2] [MgSO4, magnesium sulfate]
other side effects ([1]; 40 patients, IV infusion): No other side effects were noted
side effect during the IV infusion ([1]; almost all patients): flushed feeling
duration of relief ([1]; cluster headache, repeat infusions of 1 to 3 gram each): approximately 48 hours
Return Within 24 hr ([1]; individual chronic tension headache patients, recurrence or worsening of headache within 24 hr): N
Response ([1]; individual cluster headache patients, 1 g MgSO4 IV over 5 min, positive = greater than 50% reduction of pain intensity 15 min after infusion): Y
onset of improvement of headache ([1]; most patients): began to improve before the end of infusion
duration of relief ([1]; most patients whose headache returned within 24 hours): 1 to 2 h
number of patients with persistent relief of headache beyond 24 hours ([1]; of the 32 initial responders): 18 patients
number of patients with at least a 50% initial reduction of pain intensity [1, 4]: 32 patients
patients with at least a 50% initial reduction of pain intensity [1, 4]: 80%
duration of relief ([1]; patient #17, chronic cluster headache, after the initial and each of three subsequent infusions): 28 h
persistence of response ([1]; patient #27 (youngest patient), single infusion): positive response to Mg that persists five months later
duration of relief ([1]; patient #28, chronic migrainous headache): 24 h
outcome of cluster episode ([1]; patients #18 and #19, episodic clusters, single infusion): aborted the entire cluster episode
time to return of headaches ([1]; patients #24 and #25, episodic clusters): ≤ 24 h
duration of relief ([1]; the other four cluster headache patients): two-seven
patients with complete elimination of pain ([1]; within 5 min of infusion): 80%

CC(=O)Nc1ccc(O)cc1 [acetaminophen]
relief of headache [2]: no relief

O=C[C@H](O)[C@@H](O)[C@H](O)[C@H](O)CO [glucose]
total magnesium values after glucose loading [3]: did not differ
ionized Mg2+ levels after oral glucose loading ([3]; elevated from 0.60±0.02, ion selective electrode, p<0.01): 0.64 ± 0.02 mM
intracellular Mg after oral glucose loading ([3]; lowered from 219± 12, 31P-NMR, p<0.01): 193 ± 13 µM

CC(C)Cc1ccc(C(C)C(=O)O)cc1 (centres unmarked) [ibuprofen]
relief of headache [2]: no relief

COc1ccc2cc(CCC(C)=O)ccc2c1 [nabumetone]
relief of headache [2]: no relief
